Measurements: paper PMC12064818, “A general assay platform to study protein pharmacology using ligand-dependent structural dynamics” (Nature Communications, 2025)

How the values were obtained:
NLuc = biological target: T1, NLuc (Oplophorus gracilirostris, UniProt Q9GV45, A31E/A60N/A81I/F95D/I117V/K70R/L54V/L99Q/M102K/N193R/P142E/Q151K/Q38R/Q45L/V71I/Y165I); assay type: biochemical; settings: - ATP
T1 construct: His tag (inferred from IMAC purification); made in house; host or cells: E. coli
Procedure: Compounds and controls were added to plates as described in Supplementary Data 8. Nano-Glo luciferase assay reagent (Promega) was prepared fresh according to manufacturer’s protocol, filtered and added at 3 μL per well across assay plates with a BioRaptr2 dispenser. Enzyme was incubated with Nano-Glo reagent for 10 min and NLuc luminescence was read on a ViewLux CCD imager (PerkinElmer), with 1 s exposure with medium gain and 2x binning. Data were normalized to average no enzyme control as 100% enzyme inhibition and average DMSO neutral control. See Supplementary Table 4 for additional details.
Supplementary Table 4. […]
Sequence Param eter Value Description […]
(§1) 5 Detector ViewLux Read plate lum inescence (Exposure = 1- 10 sec; Gain = Medium -high; Speed = Slow;
Dispensing solution was diluted in 1X PBS, pH 7.4.
NanoLuc luciferase (NLuc) enzym atic lum inescence assay […]
Nano-Glo luciferase assay reagent (Prom ega, Cat # N1120) prepared according to m anufacturer’s recom m endations,
4 com ponents stored at -30 °C until use, and reagent prepared fresh for each assay.
syringe filter prior to dispense.

P. pyralis FLuc = P. pyralis FLuc (Photinus pyralis, UniProt P08659); assay: FLuc enzymatic luminescence assay, P. pyralis FLuc; assay type: biochemical; settings: FLuc enzymatic assay; for Efficacy (%) FLuc E: Clade S follow-up; for IC50: read-out: IC50 or SDR50 (mM) FLuc E
Procedure: The enzyme activity of FLuc-N-HiBiT, FLuc-C-HiBiT, and FLuc-C-NLuc was measured similar to P. pyralis firefly luciferase (FLuc) as previously described. […] Compounds and controls were added to each plate as described in Supplementary Data 8 with a Hornet pintool system (Wako Automation). Compounds were incubated with respective enzymes for 30–60 min at room temperature protected from light and covered by solid metal lid to prevent evaporation. […] Luciferin was incubated with FLuc enzyme for 5 min before FLuc activity was then measured on a ViewLux CCD imager (PerkinElmer), with exposure times up to ten seconds with medium to high gain settings. Data were normalized to average no enzyme control as 100% enzyme inhibition and average DMSO neutral control. See Supplementary Table 4 for additional details.
Assays were run in the presence (solid symbols) or absence
(open symbols) of 10 µM ATP. Corresponding SMIL E S for NC GC IDs and source data are provided in
Supplementary Data 3 and as a Source Data file. 10
Supplementary Table 4. Protocol for Firefly luciferase (FLuc) and NanoLuc (NLuc) enzymatic
Supplementary Table 4: Protocol for Firefly luciferase (FLuc) and NanoLuc (NLuc) enzym atic lum inescence assay
Firefly luciferase (FLuc) enzym atic lum inescence assay
Sequence Param eter Value Description
No enzym e control (colum n 1) and enzym e solution (1- 10 nM FLuc enzym e) in FLuc assay
1 Reagent 4 µLbuffer; white/solid bottom , m edium bind, high base plates (Greiner), dispensed with BioRaptr
com pounds transferred to respective colum ns with Pintool
2b Test Com pounds 23 nLconcentration range) in colum ns 5- 48; com pounds transferred to respective wells with
3 Incubation 30 m in Incubate enzym e + com pounds at am bient tem p for 30 m in, protected from light
4 Reagent 3 µLAdd 3 µL of D-luciferin substrate solution to each well (final concentration 10 µM); dispensed
as §1
Dispensing solution was diluted in 1X PBS, pH 7.4. […]

[1] = biological target: FLuc-C-NLuc (firefly luciferase) (Photinus pyralis, UniProt P08659, form not given/L550V); assay: SDR assay, FLuc-C-NLuc; settings: - ATP
[2] = biological target: FLuc-C-HiBiT (firefly luciferase) (Photinus pyralis, UniProt P08659, form not given/L550V); assay: SDR assay, FLuc-C-HiBiT; settings: SDR max. response, clade S
FLuc-C-HiBiT = biological target: T2, FLuc-C-HiBiT (Photinus pyralis, UniProt P08659); assay: biochemical; settings: enzyme activity, 10 uM ATP; read-out: IC50 or SDR50 (mM) / FLuc E
T2 construct: firefly luciferase with C-terminal HiBiT tag, E. coli expressed

[3] = biological target: FLuc-N-HiBiT (firefly luciferase) (Photinus pyralis, UniProt P08659, form not given/L550V); assay: SDR assay, FLuc-N-HiBiT; settings: substituted indoline (clade A'); for % Activity (max response, + ATP) / % Activity (max response, - ATP): SDR
FLuc-N-HiBiT (firefly luciferase), sequence (P08659 2-550 L550V, form open): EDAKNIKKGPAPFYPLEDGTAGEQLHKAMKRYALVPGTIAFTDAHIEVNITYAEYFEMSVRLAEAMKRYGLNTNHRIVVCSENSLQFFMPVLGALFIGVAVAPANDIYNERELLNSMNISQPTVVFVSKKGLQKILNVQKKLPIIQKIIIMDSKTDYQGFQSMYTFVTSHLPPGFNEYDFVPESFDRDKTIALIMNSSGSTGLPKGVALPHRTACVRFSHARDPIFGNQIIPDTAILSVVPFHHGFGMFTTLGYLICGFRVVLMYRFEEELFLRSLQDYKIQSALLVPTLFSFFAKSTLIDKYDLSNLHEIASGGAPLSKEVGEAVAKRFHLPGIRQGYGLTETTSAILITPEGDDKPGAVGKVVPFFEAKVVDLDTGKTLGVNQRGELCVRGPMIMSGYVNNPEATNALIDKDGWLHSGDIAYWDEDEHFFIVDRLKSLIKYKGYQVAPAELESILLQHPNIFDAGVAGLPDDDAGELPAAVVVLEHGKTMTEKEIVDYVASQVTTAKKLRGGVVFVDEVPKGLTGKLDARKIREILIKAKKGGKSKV

FLuc-C-HiBiT (firefly luciferase), sequence (P08659 2-550 L550V, form open): as above
P. pyralis FLuc, sequence (P08659 whole entry): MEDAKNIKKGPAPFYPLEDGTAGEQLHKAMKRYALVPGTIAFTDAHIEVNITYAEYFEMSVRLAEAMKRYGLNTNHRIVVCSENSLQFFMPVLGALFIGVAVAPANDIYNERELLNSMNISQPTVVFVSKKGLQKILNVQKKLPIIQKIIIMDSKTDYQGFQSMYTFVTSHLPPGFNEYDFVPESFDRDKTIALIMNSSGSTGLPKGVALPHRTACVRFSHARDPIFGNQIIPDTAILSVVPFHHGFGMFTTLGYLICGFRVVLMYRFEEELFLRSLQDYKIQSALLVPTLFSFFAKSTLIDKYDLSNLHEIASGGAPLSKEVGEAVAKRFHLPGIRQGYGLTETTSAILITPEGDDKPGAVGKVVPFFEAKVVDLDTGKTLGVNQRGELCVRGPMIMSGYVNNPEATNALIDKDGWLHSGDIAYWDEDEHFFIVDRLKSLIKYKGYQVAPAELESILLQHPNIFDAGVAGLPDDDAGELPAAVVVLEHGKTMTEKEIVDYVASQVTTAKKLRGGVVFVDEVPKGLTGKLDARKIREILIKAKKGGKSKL
T2 sequence (P08659 whole entry, looked up): as the sequence (P08659 whole entry) above
T1 sequence (Q9GV45 other isoform, or with tags, fused parts or gaps with the stated changes): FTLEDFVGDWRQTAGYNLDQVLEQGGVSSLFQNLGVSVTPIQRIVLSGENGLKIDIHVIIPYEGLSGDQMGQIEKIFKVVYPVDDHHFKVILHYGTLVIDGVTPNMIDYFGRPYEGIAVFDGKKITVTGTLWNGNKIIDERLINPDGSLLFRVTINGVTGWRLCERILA
FLuc-C-NLuc (firefly luciferase), sequence (P08659 2-550 L550V, form open): as the sequence (P08659 2-550 L550V, form open) above

Structure (SMILES): COc1ccc(CNC(=O)C2CCN(C(=O)c3ncn4c3COC(c3ccccc3)C4)CC2)cc1 (stereo not shown) [NCGC00449778-01]
- Efficacy (%) NLuc (- ATP) (NLuc): 0.00%
- pIC50 or pSDR50 FLuc E (P. pyralis FLuc): 5.01
- Efficacy (%) FLuc E (P. pyralis FLuc): -88.62%
- IC50 (P. pyralis FLuc): 0.00988 mM
- Efficacy (%) FLuc-C-NLuc SDR (-ATP) [1]: 0.00%
- % Activity (max response, + ATP) [2]: 301.65%
- % Activity (max response, - ATP) [2]: 0.00%

Structure (SMILES): Cc1ccccc1CNC(=O)C1CCN(C(=O)c2ncn3c2COC(c2ccccc2)C3)CC1 (stereo not shown) [NCGC00449798-01]
- Efficacy (%) NLuc (- ATP) (NLuc): 0.00%
- pIC50 or pSDR50 FLuc E (P. pyralis FLuc): 5.26
- Efficacy (%) FLuc E (P. pyralis FLuc): -85.12%
- IC50 (P. pyralis FLuc): 0.00555 mM
- Efficacy (%) FLuc-C-NLuc SDR (-ATP) [1]: 0.00%
- % Activity (max response, + ATP) [2]: 370.72%
- % Activity (max response, - ATP) [2]: 0.00%

Structure (SMILES): COc1ccc(NC(=O)N2CCc3c(C(=O)NCc4ccncc4)cccc32)cc1 [NCGC00430180-01]
- IC50 (FLuc-C-HiBiT): 0.000624 mM
- % Activity (max response, + ATP) ([3]; + ATP): 125.10%
- % Activity (max response, - ATP) ([3]; - ATP): 68.63%
- pSDR50 (clade A') ([3]; + ATP): 6.06
- pSDR50 (clade A') ([3]; - ATP): 4.73

Structure (SMILES): O=C(NCCc1cccnc1)c1cccc2c1CCN2C(=O)Nc1ccc(F)cc1 [NCGC00430192-01]
- IC50 (FLuc-C-HiBiT): 0.000221 mM
- % Activity (max response, + ATP) ([3]; + ATP): 119.50%
- % Activity (max response, - ATP) ([3]; - ATP): 23.04%
- pSDR50 (clade A') ([3]; + ATP): 6.44
- pSDR50 (clade A') ([3]; - ATP): 2.73

Structure (SMILES): CC(NC(=O)c1cccc2c1CCN2C(=O)Nc1ccccc1)c1cccnc1 (stereo not shown) [NCGC00430104-01]
- IC50 (FLuc-C-HiBiT): 0.00176 mM
- % Activity (max response, + ATP) ([3]; + ATP): 120.10%
- % Activity (max response, - ATP) ([3]; - ATP): 19.02%
- pSDR50 (clade A') ([3]; + ATP): 5.53
- pSDR50 (clade A') ([3]; - ATP): 4.71

Structure (SMILES): Cc1cccc(NC(=O)N2CCc3c(C(=O)NC(C)(C)C)cccc32)c1 [NCGC00430124-01]
- IC50 (FLuc-C-HiBiT): 0.00881 mM
- % Activity (max response, + ATP) ([3]; + ATP): 30.08%
- % Activity (max response, - ATP) ([3]; - ATP): 45.88%
- pSDR50 (clade A') ([3]; + ATP): 3.69
- pSDR50 (clade A') ([3]; - ATP): 4.31

Structure (SMILES): Cc1cccc(NC(=O)N2CCc3c(C(=O)N4CCN(C)CC4)cccc32)c1 [NCGC00430118-01]
- IC50 (FLuc-C-HiBiT): 0.00176 mM
- % Activity (max response, + ATP) ([3]; + ATP): 120.00%
- % Activity (max response, - ATP) ([3]; - ATP): 22.45%
- pSDR50 (clade A') ([3]; + ATP): 5.59
- pSDR50 (clade A') ([3]; - ATP): 3.92

Structure (SMILES): CN(Cc1ccccc1)C(=O)c1cccc2c1CCN2C(=O)Nc1ccccc1 [NCGC00430102-01]
- IC50 (FLuc-C-HiBiT): 0.000279 mM
- % Activity (max response, + ATP) ([3]; + ATP): 122.30%
- % Activity (max response, - ATP) ([3]; - ATP): 17.23%
- pSDR50 (clade A') ([3]; + ATP): 6.38
- pSDR50 (clade A') ([3]; - ATP): 5.03

Structure (SMILES): CN(Cc1ccco1)C(=O)c1cccc2c1CCN2C(=O)Nc1ccccc1 [NCGC00430106-01]
- IC50 (FLuc-C-HiBiT): 0.000197 mM
- % Activity (max response, + ATP) ([3]; + ATP): 117.40%
- % Activity (max response, - ATP) ([3]; - ATP): 20.13%
- pSDR50 (clade A') ([3]; + ATP): 6.53
- pSDR50 (clade A') ([3]; - ATP): 2.52

Structure (SMILES): COc1ccc(NC(=O)N2CCc3c(C(=O)N(C)Cc4ccco4)cccc32)cc1 [NCGC00430138-01]
- IC50 (FLuc-C-HiBiT): 0.00176 mM
- % Activity (max response, + ATP) ([3]; + ATP): 125.10%
- % Activity (max response, - ATP) ([3]; - ATP): 31.17%
- pSDR50 (clade A') ([3]; + ATP): 5.60
- pSDR50 (clade A') ([3]; - ATP): 3.60

Structure (SMILES): COc1ccc(NC(=O)c2cccc3c2CCN3C(=O)Nc2ccc(F)cc2)c(C)c1 [NCGC00430188-01]
- IC50 (FLuc-C-HiBiT): 0.000556 mM
- % Activity (max response, + ATP) ([3]; + ATP): 119.00%
- % Activity (max response, - ATP) ([3]; - ATP): 13.12%
- pSDR50 (clade A') ([3]; + ATP): 6.16

Structure (SMILES): CCCCNC(=O)c1cccc2c1CCN2C(=O)Nc1ccccc1 [NCGC00430146-01]
- IC50 (FLuc-C-HiBiT): 0.00157 mM
- % Activity (max response, + ATP) ([3]; + ATP): 123.10%
- % Activity (max response, - ATP) ([3]; - ATP): 25.03%
- pSDR50 (clade A') ([3]; + ATP): 5.71
- pSDR50 (clade A') ([3]; - ATP): 5.51

Structure (SMILES): CN(C)C(=O)c1cccc2c1CCN2C(=O)Nc1ccc(F)cc1 [NCGC00430198-01]
- IC50 (FLuc-C-HiBiT): 0.00394 mM
- % Activity (max response, + ATP) ([3]; + ATP): 116.90%
- % Activity (max response, - ATP) ([3]; - ATP): 14.79%
- pSDR50 (clade A') ([3]; + ATP): 5.19
